Source: ChEMBL document CHEMBL1201862, “PubChem BioAssay data set” (2004)
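Test compounds were applied to cells in 96-well plates for 48 hours at 5 doses. At the GI50, growth is halved.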 Activity calls are given as the source filed them. Cut-off read from the data, not from the text of the source: active = GI50 up to about 1.1 µM and inactive = higher.

How the values were obtained:
Assay in all cases: DTP human tumour cell line panel, 48 h
786-0 = system: 786-0
A498 = system: A498
A549 = system: A549
ACHN = system: ACHN
BT-549 = system: BT-549
CAKI-1 = system: CAKI-1
CCRF-CEM = system: CCRF-CEM
COLO 205 = system: COLO 205
DU-145 = system: DU-145
EKVX = system: EKVX
HCC 2998 = system: HCC 2998
HCT-116 = system: HCT-116
HCT-15 = system: HCT-15
HL-60 = system: HL-60
HOP-62 = system: HOP-62
HOP-92 = system: HOP-92
HT-29 = system: HT-29
Hs-578T = system: Hs-578T
IGROV-1 = system: IGROV-1
K562 = system: K562
KM12 = system: KM12
LOX IMVI = system: LOX IMVI
M14 = system: M14
MCF7 = system: MCF7
MDA-MB-231 = system: MDA-MB-231
MDA-MB-435 = system: MDA-MB-435
MOLT-4 = system: MOLT-4
Malme-3M = system: Malme-3M
NCI-H226 = system: NCI-H226
NCI-H23 = system: NCI-H23
NCI-H460 = system: NCI-H460
NCI-H522 = system: NCI-H522
NCI/ADR-RES = system: NCI/ADR-RES
OVCAR-3 = system: OVCAR-3
OVCAR-4 = system: OVCAR-4
OVCAR-5 = system: OVCAR-5
OVCAR-8 = system: OVCAR-8
PC-3 = system: PC-3
RPMI-8226 = system: RPMI-8226
SF-268 = system: SF-268
SF-295 = system: SF-295
SF-539 = system: SF-539
SK-MEL-28 = system: SK-MEL-28
SK-MEL-2 = system: SK-MEL-2
SK-MEL-5 = system: SK-MEL-5
SK-OV-3 = system: SK-OV-3
SN12C = system: SN12C
SNB-19 = system: SNB-19
SR = system: SR
SW-620 = system: SW-620
T47D = system: T47D
TK-10 = system: TK-10
U-251 = system: U-251
UACC-257 = system: UACC-257
UACC-62 = system: UACC-62
UO-31 = system: UO-31

Structure (SMILES): O=C1CSC(c2cccc([N+](=O)[O-])c2)N1c1ccc(-c2ccc(-n3c(-c4ccccc4)nc4ccccc4c3=O)cc2)cc1 (stereo unspecified)
- GI50 (786-0): 24.6 µM (inactive)
- GI50 (A498): 64.7 µM (inactive)
- GI50 (A549): 34.6 µM (inactive)
- GI50 (ACHN): 27 µM (inactive)
- GI50 (BT-549): 23.3 µM (inactive)
- GI50 (CAKI-1): > 100 µM (inactive)
- GI50 (CCRF-CEM): 23 µM (inactive)
- GI50 (COLO 205): 21.1 µM (inactive)
- GI50 (DU-145): 38.4 µM (inactive)
- GI50 (EKVX): 36.3 µM (inactive)
- GI50 (HCC 2998): > 100 µM (inactive)
- GI50 (HCT-116): 24.7 µM (inactive)
- GI50 (HCT-15): 32.1 µM
- GI50 (HL-60): 19.5 µM (inactive)
- GI50 (HOP-62): 63.7 µM (inactive)
- GI50 (HOP-92): > 100 µM (inactive)
- GI50 (HT-29): 33.4 µM (inactive)
- GI50 (Hs-578T): 49.1 µM (inactive)
- GI50 (IGROV-1): 35.3 µM (inactive)
- GI50 (K562): 24.7 µM (inactive)
- GI50 (KM12): 21.8 µM (inactive)
- GI50 (LOX IMVI): 34 µM (inactive)
- GI50 (M14): 36.2 µM (inactive)
- GI50 (MCF7): 17.3 µM (inactive)
- GI50 (MDA-MB-231): 29.9 µM (inactive)
- GI50 (MDA-MB-435): 27 µM (inactive)
- GI50 (MOLT-4): 17.2 µM (inactive)
- GI50 (Malme-3M): 29.8 µM (inactive)
- GI50 (NCI-H226): 44.1 µM (inactive)
- GI50 (NCI-H23): 59.8 µM (inactive)
- GI50 (NCI-H460): 25.5 µM (inactive)
- GI50 (NCI-H522): 25.6 µM (inactive)
- GI50 (NCI/ADR-RES): 37.2 µM (inactive)
- GI50 (OVCAR-3): 23.3 µM (inactive)
- GI50 (OVCAR-4): 25.2 µM (inactive)
- GI50 (OVCAR-5): > 100 µM (inactive)
- GI50 (OVCAR-8): 40.7 µM (inactive)
- GI50 (PC-3): 21.9 µM (inactive)
- GI50 (RPMI-8226): 30 µM (inactive)
- GI50 (SF-268): 41.1 µM (inactive)
- GI50 (SF-295): 45.8 µM (inactive)
- GI50 (SF-539): 46.5 µM (inactive)
- GI50 (SK-MEL-28): 43.6 µM (inactive)
- GI50 (SK-MEL-2): 29.2 µM (inactive)
- GI50 (SK-MEL-5): 29.1 µM (inactive)
- GI50 (SK-OV-3): > 100 µM (inactive)
- GI50 (SN12C): 48.6 µM (inactive)
- GI50 (SNB-19): 59.6 µM (inactive)
- GI50 (SR): 19.7 µM (inactive)
- GI50 (SW-620): 40 µM (inactive)
- GI50 (T47D): 17.9 µM (inactive)
- GI50 (TK-10): > 100 µM (inactive)
- GI50 (U-251): 33.5 µM (inactive)
- GI50 (UACC-257): 83.2 µM (inactive)
- GI50 (UACC-62): 28.8 µM (inactive)
- GI50 (UO-31): 18.5 µM (inactive)
